Measurements published in US6608083B1, “Quinoline derivatives(2)” (SmithKline Beecham Farmaceutici S.p.A, priority 1994, dated 2003).
Where a name gives a salt, the structure may show the parent alone.

Target: T1, NK3 receptor (Cavia porcellus, UniProt P30098)
T1 sequence (P30098 1-440): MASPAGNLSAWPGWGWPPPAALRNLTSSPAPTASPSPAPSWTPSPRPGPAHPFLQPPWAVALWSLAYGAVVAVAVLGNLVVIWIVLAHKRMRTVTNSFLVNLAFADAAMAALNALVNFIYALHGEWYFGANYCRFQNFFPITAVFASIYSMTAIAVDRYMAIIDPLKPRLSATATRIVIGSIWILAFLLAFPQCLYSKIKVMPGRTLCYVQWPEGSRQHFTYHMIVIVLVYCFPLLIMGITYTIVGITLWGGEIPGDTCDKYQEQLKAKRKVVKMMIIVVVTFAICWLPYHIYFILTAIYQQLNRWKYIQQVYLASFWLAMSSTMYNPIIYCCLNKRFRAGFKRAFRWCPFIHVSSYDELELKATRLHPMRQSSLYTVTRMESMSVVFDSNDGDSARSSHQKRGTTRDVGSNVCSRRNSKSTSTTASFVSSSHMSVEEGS
Test: Binding: displacement of [3H]-Senktide / [125I]-[Me-Phe7]-NKB, guinea-pig cortex membranes
Procedure: The activity of the compounds of the present invention, as NK3 ligands, is determined by their ability to inhibit the binding of the radiolabelled NK3 ligands, [^125I]-[Me-Phe^7]-NKB or [^3H]-Senktide, to guinea-pig and human NK3 receptors (Renzetti et al, 1991, Neuropeptide, 18, 104-114; Buell et al, 1992, FEBS, 299(1), 90-95; Chung et al, 1994, Biochem. Biophys. Res. Commun., 198(3), 967-972). […] Binding assays provide for each compound tested a mean IC50 value of 2-5 separate experiments performed in duplicate or triplicate. […] The NK3-antagonist activity of the compounds of the present invention is determined by their ability to inhibit senktide-induced contraction of the guinea-pig ileum (Maggi et al, 1990, Br. J. PharmacoL, 101, 996-1000) and rabbit isolated iris sphincter muscle (Hall et al., 1991, Eur. J. PharmacoL, 199, 9-14) and human NK3 receptors-mediated Ca^++ mobilization (Mochizuki et al, 1994, J. Bio. Chem., 269, 9651-9658). Guinea-pig and rabbit in-vitro functional assays provide for each compound tested a mean KB value of 3-8 separate experiments, where KB is the concentration of the individual compound required to produce a 2-fold rightward shift in the concentration-response curve of senktide. Human receptor functional assay allows the determination of the concentration of the individual compound required to reduce by 50% (IC50 values) the Ca^++ mobilization induced by the agonist NKB.

Compound	Ki [nM]
CCC(NC(=O)c1c(OC)c(-c2ccccc2)nc2ccccc12)c1ccccc1 (stereo not shown) [Example 47]	8.8
CCC(NC(=O)c1c(C)c(-c2ccccc2)nc2ccccc12)c1ccccc1 (stereo not shown) [Example 22]	5.6
CCc1c(-c2ccccc2)nc2ccccc2c1C(=O)NC(CC)c1ccccc1 (stereo not shown) [Example 48]	12

System: not given
Test: not given

Compound	melting point
CCC(NC(=O)c1c(Br)c(-c2ccccc2)nc2ccccc12)c1ccccc1 (stereo not shown) [Example 71]	119 to 122 °C
CCc1c(-c2ccccc2)nc2ccccc2c1C(=O)NC(CC)c1ccccc1 (stereo not shown) [Example 38]	158 to 159 °C
CCC(NC(=O)c1c(Cl)c(-c2ccccc2)nc2ccccc12)c1ccccc1 (stereo not shown) [Example 70]	137 to 139 °C
COC(=O)C(NC(=O)c1cc(-c2ccc(O)cc2)nc2ccccc12)c1ccccc1 (stereo not shown) [Example 62]	226 to 227 °C
COC(=O)C(NC(=O)c1cc(-c2cc[nH]c2)nc2ccccc12)c1ccccc1 (stereo not shown) [Example 66]	202 to 204 °C
COC(=O)C(NC(=O)c1cc(-c2ccc(OC)cc2)nc2ccccc12)c1ccccc1 (stereo not shown) [Example 60]	182 to 183 °C
CCC(NC(=O)c1c(OC)c(-c2ccccc2)nc2ccccc12)c1ccccc1 (stereo not shown) [Example 47]	132 to 134 °C
COC(=O)C(NC(=O)c1c(O)c(-c2ccccc2)nc2ccccc12)c1ccccc1 (stereo not shown) [Example 87]	125 to 127 °C
COC(=O)C(NC(=O)c1c2c(nc3ccccc13)-c1ccccc1CCC2)c1ccccc1 (stereo not shown) [Example 20]	186 to 188 °C
O=C(NC(C(=O)N1CCCC1)c1ccccc1)c1cc(-c2ccccc2)nc2ccccc12 (stereo not shown) [Example 91]	199 to 200 °C
O=C(NC1(c2ccccc2)CCCC1)c1cc(-c2ccccc2)nc2ccccc12 [Example 61]	164 to 165 °C
COC(=O)C(NC(=O)c1cc(-c2nccs2)nc2ccccc12)c1ccccc1 (stereo not shown) [Example 54]	209 to 211 °C
CCCc1c(-c2ccccc2)nc2ccccc2c1C(=O)NC(CC)c1ccccc1 (stereo not shown) [Example 40]	149 to 151 °C
CCC(NC(=O)c1cc(-c2ccccc2)nc2ccccc12)c1ccc(Cl)c(Cl)c1 (stereo not shown) [Example 27]	193 to 194 °C
COC(=O)C(NC(=O)c1cc(-c2ccccc2Cl)nc2ccccc12)c1ccccc1 (stereo not shown) [Example 78]	175 to 178 °C
COC(=O)C(NC(=O)c1cc(-c2ccc(Cl)c(Cl)c2)nc2ccccc12)c1ccccc1 (stereo not shown) [Example 67]	164 to 165 °C
CCC(NC(=O)c1c(OC)c(-c2ccccc2)nc2ccccc12)c1ccccc1 (stereo not shown) [Example 18]	163 to 165 °C
CCC(NC(=O)c1cc(-c2ccccc2)nc2ccccc12)c1ccc(Cl)cc1 (stereo not shown) [Example 49]	177 to 178 °C
COC(=O)C(NC(=O)c1cc(-c2ccccc2)nc2ccc(C)cc12)c1ccccc1 (stereo not shown) [Example 33]	179 to 181 °C
CCc1c(-c2ccccc2)nc2ccccc2c1C(=O)NC(CC)c1ccccc1 (stereo not shown) [Example 48]	118 to 120 °C
COC(=O)[C@H](NC(=O)c1cc(-c2ccccc2)nc2ccccc12)c1ccc(O)cc1.Cl	140 °C (dec.)
CCCC(NC(=O)c1cc(-c2ccccc2)nc2ccccc12)c1ccccc1 (stereo not shown) [Example 37]	149 to 150 °C

Compound	melting point
C[C@H](O)[C@H](NC(=O)c1cc(-c2ccccc2)nc2ccccc12)c1ccccc1 [Example 17, (R,S)-N-[α-(1-hydroxyethyl)benzyl]-2-phenylquinoline-4-carboxamide]	204 to 205 °C
COC(=O)C(NC(=O)c1cc(-c2ccccc2)nc2ccccc12)C1=CCC=CC1 (stereo not shown) [Example 16]	120 to 122 °C
COC(=O)C(NC(=O)c1cc(-c2ccccc2)nc2ccc(OC)cc12)c1ccccc1 (stereo not shown) [Example 43]	209 to 211 °C
CCC(NC(=O)c1c(N2C(=O)c3ccccc3C2=O)c(-c2ccccc2)nc2ccccc12)c1ccccc1 (stereo not shown) [Example 39]	201 to 202 °C
CCC(NC(=O)c1c(-c2ccccc2)c(-c2ccccc2)nc2ccccc12)c1ccccc1 (stereo not shown) [Example 25]	198 to 200 °C
NCC(NC(=O)c1cc(-c2ccccc2)nc2ccccc12)c1ccccc1 (stereo not shown) [Example 68]	139 to 141 °C
COC(=O)C(NC(=O)c1cc(-c2ccccc2)nc2ccc(Cl)cc12)c1ccccc1 (stereo not shown) [Example 35]	197 to 199 °C
CCc1c(-c2ccccc2)nc2ccccc2c1C(=O)NC(C(=O)OC)c1ccccc1 (stereo not shown) [Example 36]	156 to 157 °C
COC(=O)C(NC(=O)c1c2c(nc3ccccc13)-c1ccccc1CC2)c1ccccc1 (stereo not shown) [Example 52]	217 to 219 °C
CCCCC(NC(=O)c1cc(-c2ccccc2)nc2ccccc12)c1ccccc1 (stereo not shown) [Example 56]	155 to 156 °C
CCC(NC(=O)c1c(C)c(-c2ccc(Br)cc2)nc2ccc(Br)cc12)c1ccccc1 (stereo not shown) [Example 41]	230 to 231 °C
COCC(NC(=O)c1cc(-c2ccccc2)nc2ccccc12)c1ccccc1 (stereo not shown) [Example 34]	144 to 145 °C
CCC(NC(=O)c1cc(-c2ccccc2)nc2ccccc12)c1ccc(C)cc1 (stereo not shown) [Example 65]	160 to 162 °C
O=C(NC(Cc1ccccc1)c1ccccc1)c1cc(-c2ccccc2)nc2ccccc12 (stereo not shown) [Example 45]	194 to 196 °C
O=C(NC(c1ccccc1)c1ccccc1)c1cc(-c2ccccc2)nc2ccccc12 [Example 84]	182 to 184 °C
COC(=O)C(c1ccccc1)N(C)C(=O)c1cc(-c2ccccc2)nc2ccccc12 (stereo not shown) [Example 50]	128 to 129 °C
COC(=O)C(NC(=O)c1cc(C2CCCCC2)nc2ccccc12)c1ccccc1 (stereo not shown) [Example 76]	151 to 153 °C
COC(=O)C(NC(=O)c1cc(-c2cccc(Cl)c2)nc2ccccc12)c1ccccc1 (stereo not shown) [Example 77]	161 to 163 °C
COC(=O)C(NC(=O)c1cc(-c2ccccc2OC)nc2ccccc12)c1ccccc1 (stereo not shown) [Example 24]	124 to 125 °C
O=C(NC(C(=O)O)c1ccccc1)c1cc(-c2ccccc2)nc2ccccc12 (stereo not shown) (as salt: HCl) [Example 92]	203 to 205 °C
COC(=O)C(NC(=O)c1cc(-c2ccc3c(c2)OCO3)nc2ccccc12)c1ccccc1 (stereo not shown) [Example 63]	186 to 187 °C
NC(=O)C(NC(=O)c1cc(-c2ccccc2)nc2ccccc12)c1ccccc1 (stereo not shown) [Example 90]	237 to 238 °C

Compound	melting point
COC(=O)C(NC(=O)c1cc(-c2ccccc2F)nc2ccccc12)c1ccccc1 (stereo not shown) [Example 26]	146 to 147 °C
COC(=O)C(NC(=O)c1cc(-c2ccc[nH]2)nc2ccccc12)c1ccccc1 (stereo not shown) [Example 53]	181 to 182 °C
COC(=O)C(NC(=O)c1cc(-c2ccc(C)cc2)nc2ccccc12)c1ccccc1 (stereo not shown) [Example 57]	172 to 174 °C
CC(C)(NC(=O)c1cc(-c2ccccc2)nc2ccccc12)c1ccccc1 [Example 64]	173 to 174 °C
CN(C)C(=O)C(NC(=O)c1cc(-c2ccccc2)nc2ccccc12)c1ccccc1 (stereo not shown) [Example 89]	219 to 221 °C
COC(=O)C(NC(=O)c1cc(-c2ccccc2)nc2ccc(F)cc12)c1ccccc1 (stereo not shown) [Example 75]	174 to 176 °C
COC(=O)C(NC(=O)c1cc(-c2ccsc2)nc2ccccc12)c1ccccc1 (stereo not shown) [Example 51]	169 to 171 °C
COC(=O)C(NC(=O)c1c(C)c(-c2ccccc2)nc2ccccc12)c1ccccc1 (stereo not shown) [Example 30]	180 to 181 °C
COC(=O)C(NC(=O)c1cc(-c2cc3ccccc3o2)nc2ccccc12)c1ccccc1 (stereo not shown) [Example 44]	240 to 241 °C
CCC(NC(=O)c1c(C)c(-c2ccccc2)nc2ccc(Br)cc12)c1ccccc1 (stereo not shown) [Example 42]	179 to 180 °C
CN(C)CC(NC(=O)c1cc(-c2ccccc2)nc2ccccc12)c1ccccc1 (stereo not shown) [Example 88]	133 to 135 °C
CC(C)C(NC(=O)c1cc(-c2ccccc2)nc2ccccc12)c1ccccc1 (stereo not shown) [Example 72]	165 to 166 °C
COC(=O)C(NC(=O)c1cc(-c2ccccc2C)nc2ccccc12)c1ccccc1 (stereo not shown) [Example 59]	180 to 182 °C
COC(=O)C(NC(=O)c1cc(-c2ccc(Cl)cc2Cl)nc2ccccc12)c1ccccc1 (stereo not shown) [Example 82]	142 to 143 °C
CCCCc1c(-c2ccccc2)nc2ccccc2c1C(=O)NC(CC)c1ccccc1 (stereo not shown) [Example 19]	147 to 150 °C
O=C(NC(c1ccccc1)C(F)(F)F)c1cc(-c2ccccc2)nc2ccccc12 (stereo not shown) [Example 46]	180 to 181 °C
O=C(NC(CO)c1ccccc1)c1cc(-c2ccccc2)nc2ccccc12 (stereo not shown) [Example 28]	117 to 119 °C
COC(=O)C(NC(=O)c1cc(-c2ccccc2)nc2cc(Cl)ccc12)c1ccccc1 (stereo not shown) [Example 32]	180 to 183 °C
COC(=O)C(NC(=O)c1cc(-c2ccccc2)nc2c(OC(C)=O)cccc12)c1ccccc1 (stereo not shown) [Example 80]	193 to 194 °C
COC(=O)C(NC(=O)c1cc(-c2ccccc2)nc2c(O)cccc12)c1ccccc1 (stereo not shown) [Example 81]	178 to 180 °C
